# Experimental data as given in US9139609B2, “C-4″ position substituted macrolide derivative” (priority 2011, dated 2015).
# How the values were obtained:
# Type in all cases: cell-based
# [1] = system: Haemophilus infuenzae ATCC43095; assay: In vitro antibacterial activity, microbroth dilution method (CLSI method), test bacterium A; conditions: for MIC: read-out: MIC (minimum inhibitory concentration), test bacterium A
# Experimental: (§1) In vitro antibacterial activities of the compounds of the present invention against various test bacteria were measured according to the microbroth dilution method (CLSI method). Among them, the bacteria C, D and E are erythromycin resistant bacteria. The MIC values (minimum inhibitory concentration, μg/ml) for the test bacteria A and B are exemplified in Table 22.
# [2] = system: Streptococcus pneumoniae ATCC49619; assay: In vitro antibacterial activity, microbroth dilution method (CLSI method), test bacterium B; conditions: for MIC: read-out: MIC (minimum inhibitory concentration), test bacterium B
# Experimental: as §1
# [3] = system: Streptococcus pneumoniae ATCC700904; assay: In vitro antibacterial activity, microbroth dilution method (CLSI method), test bacterium C (erythromycin resistant); conditions: read-out: MIC (minimum inhibitory concentration), test bacterium C
# Experimental: as §1
# [4] = system: Streptococcus pyogenes M808; assay: In vitro antibacterial activity, microbroth dilution method (CLSI method), test bacterium D (erythromycin resistant); conditions: read-out: MIC (minimum inhibitory concentration), test bacterium D
# Experimental: as §1
# [5] = system: Mycoplasma pneumoniae MSC04933; assay: In vitro antibacterial activity, microbroth dilution method (CLSI method), test bacterium E (erythromycin resistant); conditions: read-out: MIC (minimum inhibitory concentration), test bacterium E
# Experimental: as §1
Compound,MIC [1] [µg/mL],MIC [2] [µg/mL],other results
CC[C@H]1OC(=O)[C@H](C)[C@@H](O[C@H]2C[C@@](C)(OC)[C@@](O)(CN(C)CCN(C)C(C)(C)c3ccccc3OC)[C@H](C)O2)[C@H](C)[C@@H](O[C@@H]2O[C@H](C)C[C@H](N(C)C)[C@H]2O)[C@@]2(C)C[C@@H](C)C3(NCCN4C(=O)O[C@@]1(C)[C@H]4[C@H]3C)O2 [Example341],–,–,"MIC (minimum inhibitory concentration), test bacterium A [1]: 4 µg/mL; MIC (minimum inhibitory concentration), test bacterium B [2]: 0.06 µg/mL"
CC[C@H]1OC(=O)[C@H](C)[C@@H](O[C@H]2C[C@@](C)(OC)[C@@](O)(CN(C)CCN(CC)CC)[C@H](C)O2)[C@H](C)[C@@H](O[C@@H]2O[C@H](C)C[C@H](N(C)C)[C@H]2O)[C@@](C)(OC)C[C@@H](C)C(=O)[C@H](C)[C@H]2N(CC3CCS(=O)(=O)C3)C(=O)O[C@]12C (stereo partly drawn) [Example154],4,0.06,–
CC[C@H]1OC(=O)[C@H](C)[C@@H](O[C@H]2C[C@@](C)(OC)[C@@](O)(CN(C)CCN(C(C)C)C(C)C)[C@H](C)O2)[C@H](C)[C@@H](O[C@@H]2O[C@H](C)C[C@H](N(C)C)[C@H]2O)[C@@](C)(OC)C[C@@H](C)C(=O)[C@H](C)[C@H]2N(CCS(=O)(=O)NC)C(=O)O[C@]12C [Example451],4,0.03,–
CC[C@H]1OC(=O)[C@H](C)[C@@H](O[C@H]2C[C@@](C)(OC)[C@@](O)(CN(C)CCN(C)C(C)(C)c3ccccc3OC)[C@H](C)O2)[C@H](C)[C@@H](O[C@@H]2O[C@H](C)C[C@H](N(C)C)[C@H]2O)[C@@]2(C)C[C@@H](C)C3(NCCN4C(=O)O[C@@]1(C)[C@H]4[C@H]3C)O2 [Example 341],–,–,MIC [3]: 0.12 to 0.25 µg/mL; MIC [4]: ≤ 2 µg/mL; MIC [5]: ≤ 0.25 µg/mL
CC[C@H]1OC(=O)[C@H](C)[C@@H](O[C@H]2C[C@@](C)(OC)[C@@](O)(CN(C)CCN(C)C(C)(C)c3ccccc3OC)[C@H](C)O2)[C@H](C)[C@@H](O[C@@H]2O[C@H](C)C[C@H](N(C)C)[C@H]2O)[C@@](C)(OC(N)=O)C[C@@H](C)C(=O)[C@H](C)[C@H]2NC(=O)O[C@@]21C [Example 342],–,–,MIC [3]: 0.12 to 0.25 µg/mL; MIC [4]: ≤ 2 µg/mL; MIC [5]: ≤ 0.25 µg/mL
CC[C@H]1OC(=O)[C@H](C)[C@@H](O[C@H]2C[C@@](C)(OC)[C@@](O)(CN(C)CCN(C)C(C)(C)c3ccccc3OC)[C@H](C)O2)[C@H](C)[C@@H](O[C@@H]2O[C@H](C)C[C@H](N(C)C)[C@H]2O)[C@@](C)(OC)C[C@@H](C)C2=NCCN3C(=O)O[C@@]1(C)[C@H]3[C@H]2C [Example 338],–,–,MIC [3]: 0.12 to 0.25 µg/mL; MIC [4]: ≤ 2 µg/mL; MIC [5]: ≤ 0.25 µg/mL
CC[C@H]1OC(=O)[C@H](C)[C@@H](O[C@H]2C[C@@](C)(OC)[C@@](O)(CN(C)C(=O)CN(CC)CC)[C@H](C)O2)[C@H](C)[C@@H](O[C@@H]2O[C@H](C)C[C@H](N(C)C)[C@H]2O)[C@@](C)(OC)C[C@@H](C)C(=O)[C@H](C)[C@H]2NC(=O)O[C@@]21C [Example329],8,0.03,–
CC[C@H]1OC(=O)[C@H](C)[C@@H](O[C@H]2C[C@@](C)(OC)[C@@](O)(CN(C)CCN(CC)CC)[C@H](C)O2)[C@H](C)[C@@H](O[C@@H]2O[C@H](C)C[C@H](N(C)C)[C@H]2O)[C@@](C)(OC)C[C@@H](C)C(=O)[C@H](C)[C@H]2NC(=O)O[C@@]21C [Example 299],–,–,MIC [3]: 0.12 to 0.25 µg/mL; MIC [4]: ≥ 16 µg/mL; MIC [5]: 0.5 to 1 µg/mL
CC[C@H]1OC(=O)[C@H](C)[C@@H](O[C@H]2C[C@@](C)(OC)[C@@](O)(CN(C)CCN(C)C(C)(C)c3ccccc3OC)[C@H](C)O2)[C@H](C)[C@@H](O[C@@H]2O[C@H](C)C[C@H](N(C)C)[C@H]2O)[C@@](C)(OC)C[C@@H](C)[C@@H]2NCCN3C(=O)O[C@@]1(C)[C@H]3[C@@H]2C [Example340],4,0.06,–
CC[C@H]1OC(=O)[C@H](C)[C@@H](O[C@H]2C[C@@](C)(OC)[C@@](O)(CN(C)CCN(C)C(C)(C)c3ccccc3OC)[C@H](C)O2)[C@H](C)[C@@H](O[C@@H]2O[C@H](C)C[C@H](N(C)C)[C@H]2O)[C@@](C)(OC(N)=O)C[C@@H](C)C(=O)[C@H](C)[C@H]2NC(=O)O[C@@]21C [Example342],4,0.06,–
CC[C@H]1OC(=O)[C@H](C)[C@@H](O[C@H]2C[C@@](C)(OC)[C@@](O)(CN(C)CCN(C(C)C)C(C)C)[C@H](C)O2)[C@H](C)[C@@H](O[C@@H]2O[C@H](C)C[C@H](N(C)C)[C@H]2O)[C@@](C)(OC)C[C@@H](C)C(=NO)[C@H](C)[C@H]2N(CCNS(C)(=O)=O)C(=O)O[C@]12C [Example 458],4,0.06,MIC [3]: 0.12 to 0.25 µg/mL; MIC [4]: 4 to 8 µg/mL
CC[C@H]1OC(=O)[C@H](C)[C@@H](O[C@H]2C[C@@](C)(OC)[C@@](O)(CN(C)CCN(C)C(C)(C)c3ccccc3OC)[C@H](C)O2)[C@H](C)[C@@H](O[C@@H]2O[C@H](C)C[C@H](N(C)C)[C@H]2O)[C@@](C)(OC)C[C@@H](C)C(=O)[C@H](C)[C@H]2C(C#N)C(=O)O[C@@]21C (stereo partly drawn) [Example363],8,0.06,–
CC[C@H]1OC(=O)[C@H](C)[C@@H](O[C@H]2C[C@@](C)(OC)[C@@](O)(CN(C)CCN(C(C)C)C(C)C)[C@H](C)O2)[C@H](C)[C@@H](O[C@@H]2O[C@H](C)C[C@H](N(C)C)[C@H]2O)[C@@](C)(OC)C[C@@H](C)C(=O)[C@H](C)[C@H]2N(CCOS(N)(=O)=O)C(=O)O[C@]12C [Example456],2,0.03,–
CC[C@H]1OC(=O)[C@H](C)[C@@H](O[C@H]2C[C@@](C)(OC)[C@@](O)(CN(C)CCN(CC)C(C)=O)[C@H](C)O2)[C@H](C)[C@@H](O[C@@H]2O[C@H](C)C[C@H](N(C)C)[C@H]2O)[C@@](C)(OC)C[C@@H](C)C(=O)[C@H](C)[C@H]2NC(=O)O[C@@]21C [Example263],8,0.06,–
CC[C@H]1OC(=O)[C@H](C)[C@@H](O[C@H]2C[C@@](C)(OC)[C@@](O)(CN(C)CCN(C)C(C)(C)c3ccccc3OC)[C@H](C)O2)[C@H](C)[C@@H](O[C@@H]2O[C@H](C)C[C@H](N(C)C)[C@H]2O)[C@@](C)(OC)C[C@@H](C)C2=NCCN3C(=O)O[C@@]1(C)[C@H]3[C@H]2C [Example338],8,0.06,–
CC[C@H]1OC(=O)[C@H](C)[C@@H](O[C@H]2C[C@@](C)(OC)[C@@](O)(CN(C)CCN(CC)CC)[C@H](C)O2)[C@H](C)[C@@H](O[C@@H]2O[C@H](C)C[C@H](N(C)C)[C@H]2O)[C@@](C)(OC)C[C@@H](C)C(=O)[C@H](C)[C@H]2NC(=O)O[C@@]21C [Example299],4,0.03,–
CC[C@H]1OC(=O)[C@H](C)[C@@H](O[C@H]2C[C@@](C)(OC)[C@@](O)(CN(C)CCN(CC)CC)[C@H](C)O2)[C@H](C)[C@@H](O[C@@H]2O[C@H](C)C[C@H](N(C)C)[C@H]2O)[C@@](C)(OC)C[C@@H](C)C(=O)[C@H](C)[C@H]2N(CCN3CCNS3(=O)=O)C(=O)O[C@]12C [Example440],4,0.03,–
CC[C@H]1OC(=O)[C@H](C)[C@@H](O[C@H]2C[C@@](C)(OC)[C@@](O)(CN(C)CCN(C)C)[C@H](C)O2)[C@H](C)[C@@H](O[C@@H]2O[C@H](C)C[C@H](N(C)C)[C@H]2O)[C@@](C)(OC)C[C@@H](C)C(=O)[C@H](C)[C@H]2C(SCCCn3cnc4c(N)ncnc43)C(=O)O[C@@]21C (stereo partly drawn) [Example364],8,0.03,–
CC[C@H]1OC(=O)[C@H](C)[C@@H](O[C@H]2C[C@@](C)(OC)[C@@](O)(CN(CCOC)CCN(CC)CC)[C@H](C)O2)[C@H](C)[C@@H](O[C@@H]2O[C@H](C)C[C@H](N(C)C)[C@H]2O)[C@@](C)(OC)C[C@@H](C)C(=O)[C@H](C)[C@H]2N(CCNS(C)(=O)=O)C(=O)O[C@]12C [Example443],4,0.03,–
CC[C@H]1OC(=O)[C@H](C)[C@@H](O[C@H]2C[C@@](C)(OC)[C@@](O)(CN(C)CCN(C)C)[C@H](C)O2)[C@H](C)[C@@H](O[C@@H]2O[C@H](C)C[C@H](N(C)C)[C@H]2O)[C@@](C)(OC)C[C@@H](C)C(=O)[C@H](C)[C@H]2N(C)C(=O)O[C@]12C [Example183],8,0.016,–
CC[C@H]1OC(=O)[C@H](C)[C@@H](O[C@H]2C[C@@](C)(OC)[C@@](O)(CN(C)CCN(C(C)C)C(C)C)[C@H](C)O2)[C@H](C)[C@@H](O[C@@H]2O[C@H](C)C[C@H](N(C)C)[C@H]2O)[C@@](C)(OC)C[C@@H](C)C(=O)[C@H](C)[C@H]2N(CCNS(C)(=O)=O)C(=O)O[C@]12C [Example404],4,0.03,–
CC[C@H]1OC(=O)[C@H](C)[C@@H](O[C@H]2C[C@@](C)(OC)[C@@](O)(CN(C)CCN(CC)C3CCC3)[C@H](C)O2)[C@H](C)[C@@H](O[C@@H]2O[C@H](C)C[C@H](N(C)C)[C@H]2O)[C@@](C)(OC)C[C@@H](C)C(=O)[C@H](C)[C@H]2N(CCCS(C)(=O)=O)C(=O)O[C@]12C [Example418],4,0.03,–
CC[C@H]1OC(=O)[C@H](C)[C@@H](O[C@H]2C[C@@](C)(OC)[C@@](O)(CN(C)CCN(C)C)[C@H](C)O2)[C@H](C)[C@@H](O[C@@H]2O[C@H](C)C[C@H](N(C)C)[C@H]2O)[C@@](C)(OC(=O)NC/C=C/c2ccc3ncccc3c2)C[C@@H](C)C(=O)[C@H](C)[C@H]2NC(=O)O[C@@]21C [Example348],16,0.03,–
CC[C@H]1OC(=O)[C@H](C)[C@@H](O[C@H]2C[C@@](C)(OC)[C@@](O)(CN(C)CCN(CC)CC)[C@H](C)O2)[C@H](C)[C@@H](O[C@@H]2O[C@H](C)C[C@H](N(C)C)[C@H]2O)[C@@](C)(OC)C[C@@H](C)C(=O)[C@H](C)[C@H]2N(O)C(=O)O[C@]12C [Example170],4,0.03,–
